#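 Growth conditions: 96-well plates. Treatment: test compound, 48 hours, 5 concentrations. Analysis: linear interpolation between bracketing concentrations; unreached endpoints set to highest concentration. TGI is the concentration that stops growth completely.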
# What was measured:
# Assay in all cases: NCI tumour cell line growth inhibition, 48 h
# UACC-62 melanoma = tested on: UACC-62 melanoma
# HCT-15 colon = tested on: HCT-15 colon
# SF-268 CNS = tested on: SF-268 CNS
# SNB-19 CNS = tested on: SNB-19 CNS
# HT29 colon = tested on: HT29 colon
# UO-31 renal = tested on: UO-31 renal
# MOLT-4 leukemia = tested on: MOLT-4 leukemia
# U251 CNS = tested on: U251 CNS
# ACHN renal = tested on: ACHN renal
# SK-MEL-28 melanoma = tested on: SK-MEL-28 melanoma
# K-562 leukemia = tested on: K-562 leukemia
# NCI-H522 lung = tested on: NCI-H522 lung
# OVCAR-4 ovarian = tested on: OVCAR-4 ovarian
# TK-10 renal = tested on: TK-10 renal
# HCC-2998 colon = tested on: HCC-2998 colon
# HOP-92 NSCLC = tested on: HOP-92 NSCLC
# SF-295 CNS = tested on: SF-295 CNS
# DLD-1 colon = tested on: DLD-1 colon
# CCRF-CEM leukemia = tested on: CCRF-CEM leukemia
# RXF 393 renal = tested on: RXF 393 renal
# KM20L2 colon = tested on: KM20L2 colon
# DMS 273 small cell lung = tested on: DMS 273 small cell lung
# XF 498 CNS = tested on: XF 498 CNS
# M19-MEL melanoma = tested on: M19-MEL melanoma
# 786-0 renal = tested on: 786-0 renal
# OVCAR-8 ovarian = tested on: OVCAR-8 ovarian
# SK-MEL-2 melanoma = tested on: SK-MEL-2 melanoma
# RPMI-8226 leukemia = tested on: RPMI-8226 leukemia
# OVCAR-3 ovarian = tested on: OVCAR-3 ovarian
# HOP-18 NSCLC = tested on: HOP-18 NSCLC
# HCT-116 colon = tested on: HCT-116 colon
# SW-620 colon = tested on: SW-620 colon
# IGROV1 ovarian = tested on: IGROV1 ovarian
# A498 renal = tested on: A498 renal
# RXF-631 renal = tested on: RXF-631 renal
# SF-539 CNS = tested on: SF-539 CNS
# SNB-78 CNS = tested on: SNB-78 CNS
# HL-60(TB) leukemia = tested on: HL-60(TB) leukemia
# A549 NSCLC = tested on: A549 NSCLC
# NCI-H226 lung = tested on: NCI-H226 lung
# LOX IMVI melanoma = tested on: LOX IMVI melanoma
# SK-MEL-5 melanoma = tested on: SK-MEL-5 melanoma
# NCI-H23 lung = tested on: NCI-H23 lung
# SK-OV-3 ovarian = tested on: SK-OV-3 ovarian
# SNB-75 CNS = tested on: SNB-75 CNS
# EKVX NSCLC = tested on: EKVX NSCLC
# M14 melanoma = tested on: M14 melanoma
# KM12 colon = tested on: KM12 colon
# OVCAR-5 ovarian = tested on: OVCAR-5 ovarian
# UACC-257 melanoma = tested on: UACC-257 melanoma
# DMS 114 small cell lung = tested on: DMS 114 small cell lung
# COLO 205 colon = tested on: COLO 205 colon
# CAKI-1 renal = tested on: CAKI-1 renal
# LXFL 529 NSCLC = tested on: LXFL 529 NSCLC
# MALME-3M melanoma = tested on: MALME-3M melanoma
# P388/ADR leukemia = tested on: P388/ADR leukemia
# HOP-62 NSCLC = tested on: HOP-62 NSCLC
# SN12K1 renal = tested on: SN12K1 renal
# SN12C renal = tested on: SN12C renal
# NCI-H460 lung = tested on: NCI-H460 lung
# NCI/ADR-RES ovarian = tested on: NCI/ADR-RES ovarian
# MCF7 breast = tested on: MCF7 breast
# P388 leukemia = tested on: P388 leukemia
structure (smiles),measurement,setting,value
COc1cc(O)c2c(c1)C(=O)C=C(Cl)C2=O,TGI,UACC-62 melanoma,> 100 µM
same,TGI,HCT-15 colon,> 100 µM
same,TGI,SF-268 CNS,> 100 µM
same,TGI,SNB-19 CNS,> 100 µM
same,TGI,HT29 colon,> 100 µM
same,TGI,UO-31 renal,> 100 µM
same,TGI,MOLT-4 leukemia,> 100 µM
same,TGI,U251 CNS,> 100 µM
same,TGI,ACHN renal,> 100 µM
same,TGI,SK-MEL-28 melanoma,> 100 µM
same,TGI,K-562 leukemia,> 100 µM
same,TGI,NCI-H522 lung,> 100 µM
same,TGI,OVCAR-4 ovarian,> 100 µM
same,TGI,TK-10 renal,> 100 µM
same,TGI,HCC-2998 colon,> 100 µM
same,TGI,HOP-92 NSCLC,> 100 µM
same,TGI,SF-295 CNS,> 100 µM
same,TGI,DLD-1 colon,> 100 µM
same,TGI,CCRF-CEM leukemia,> 100 µM
same,TGI,RXF 393 renal,> 100 µM
same,TGI,KM20L2 colon,> 100 µM
same,TGI,DMS 273 small cell lung,> 100 µM
same,TGI,XF 498 CNS,> 100 µM
same,TGI,M19-MEL melanoma,> 100 µM
same,TGI,786-0 renal,> 100 µM
same,TGI,OVCAR-8 ovarian,> 100 µM
same,TGI,SK-MEL-2 melanoma,> 100 µM
same,TGI,RPMI-8226 leukemia,> 100 µM
same,TGI,OVCAR-3 ovarian,> 100 µM
same,TGI,HOP-18 NSCLC,> 100 µM
same,TGI,HCT-116 colon,> 100 µM
same,TGI,SW-620 colon,> 100 µM
same,TGI,IGROV1 ovarian,> 100 µM
same,TGI,A498 renal,> 100 µM
same,TGI,RXF-631 renal,> 100 µM
same,TGI,SF-539 CNS,> 100 µM
same,TGI,SNB-78 CNS,> 100 µM
same,TGI,HL-60(TB) leukemia,> 100 µM
same,TGI,A549 NSCLC,> 100 µM
same,TGI,NCI-H226 lung,> 100 µM
same,TGI,LOX IMVI melanoma,> 100 µM
same,TGI,SK-MEL-5 melanoma,> 100 µM
same,TGI,NCI-H23 lung,> 100 µM
same,TGI,SK-OV-3 ovarian,> 100 µM
same,TGI,SNB-75 CNS,> 100 µM
same,TGI,EKVX NSCLC,> 100 µM
same,TGI,M14 melanoma,> 100 µM
same,TGI,KM12 colon,> 100 µM
same,TGI,OVCAR-5 ovarian,> 100 µM
same,TGI,UACC-257 melanoma,> 100 µM
same,TGI,DMS 114 small cell lung,> 100 µM
same,TGI,COLO 205 colon,> 100 µM
same,TGI,CAKI-1 renal,> 100 µM
same,TGI,LXFL 529 NSCLC,> 100 µM
same,TGI,MALME-3M melanoma,> 100 µM
C=C1C(=O)C[C@@]23CCC[C@@]12CC(OCOC)C3 (some centres not stated),TGI,UACC-62 melanoma,7.62 µM
same,TGI,HCT-15 colon,3.08 µM
same,TGI,P388/ADR leukemia,2.09 µM
same,TGI,SF-268 CNS,17.5 µM
same,TGI,SNB-19 CNS,28.7 µM
same,TGI,HT29 colon,4.41 µM
same,TGI,UO-31 renal,13.3 µM
same,TGI,MOLT-4 leukemia,9.93 µM
same,TGI,U251 CNS,21 µM
same,TGI,SK-MEL-28 melanoma,8.14 µM
same,TGI,K-562 leukemia,> 51.5 µM
same,TGI,NCI-H522 lung,0.675 µM
same,TGI,OVCAR-4 ovarian,5.66 µM
same,TGI,HCC-2998 colon,12.3 µM
same,TGI,HOP-92 NSCLC,7.43 µM
same,TGI,SF-295 CNS,17.3 µM
same,TGI,DLD-1 colon,4.81 µM
same,TGI,CCRF-CEM leukemia,6.81 µM
same,TGI,RXF 393 renal,2.17 µM
same,TGI,KM20L2 colon,9.02 µM
same,TGI,DMS 273 small cell lung,6.65 µM
same,TGI,XF 498 CNS,8.33 µM
same,TGI,M19-MEL melanoma,12.5 µM
same,TGI,OVCAR-8 ovarian,9.96 µM
same,TGI,HOP-62 NSCLC,25.9 µM
same,TGI,SK-MEL-2 melanoma,11.2 µM
same,TGI,RPMI-8226 leukemia,9.8 µM
same,TGI,OVCAR-3 ovarian,6.48 µM
same,TGI,HOP-18 NSCLC,11.5 µM
same,TGI,HCT-116 colon,6 µM
same,TGI,SW-620 colon,3.97 µM
same,TGI,IGROV1 ovarian,6.02 µM
same,TGI,A498 renal,18.4 µM
same,TGI,SN12K1 renal,4.13 µM
same,TGI,SF-539 CNS,9.5 µM
same,TGI,SN12C renal,4.53 µM
same,TGI,SNB-78 CNS,22.5 µM
same,TGI,HL-60(TB) leukemia,4.76 µM
same,TGI,A549 NSCLC,28.4 µM
same,TGI,NCI-H226 lung,4.66 µM
same,TGI,LOX IMVI melanoma,3.87 µM
same,TGI,SK-MEL-5 melanoma,13.3 µM
same,TGI,NCI-H460 lung,13.2 µM
same,TGI,NCI-H23 lung,11.1 µM
same,TGI,SK-OV-3 ovarian,17.8 µM
same,TGI,SNB-75 CNS,6.41 µM
same,TGI,EKVX NSCLC,16.7 µM
same,TGI,KM12 colon,9.48 µM
same,TGI,OVCAR-5 ovarian,8.26 µM
same,TGI,UACC-257 melanoma,7.82 µM
same,TGI,DMS 114 small cell lung,5.13 µM
same,TGI,COLO 205 colon,14.6 µM
same,TGI,CAKI-1 renal,6.94 µM
same,TGI,NCI/ADR-RES ovarian,9.5 µM
same,TGI,MCF7 breast,3.74 µM
same,TGI,MALME-3M melanoma,8.38 µM
same,TGI,P388 leukemia,1.92 µM
